According to PubChem BioAssay AID248 (DTP/NCI, 2004):
Where “and” joins values, the source holds several entries; their conditions need not be identical. Equal entries are not always repeated. Inconclusive results and toxic doses are left out.

System: L1210 leukemia ip in BDF1 mice, survival T/C
Assay: NCI In Vivo Anticancer Drug Screen. Data for tumor model L1210 Leukemia (intraperitoneal) in B6D2F1 (BDF1) mice
Details: endpoint: mean survival time, higher = longer survival
In short: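 Transplanted-tumor mice were given test agent; controls received vehicle only. Survival readings from the two groups were divided (treated over control).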

[1] = dose: 100.0 mg/kg/injection, schedule: Q04DX003 (ip), vehicle: saline with Tween-80
[2] = dose: 200.0 mg/kg/injection, schedule: Q04DX003 (ip), vehicle: saline with Tween-80
[3] = dose: 400.0 mg/kg/injection, schedule: Q04DX003 (ip), vehicle: saline with Tween-80
[4] = dose: 100.0 mg/kg/injection, schedule: Q04DX002 (ip), vehicle: saline with Tween-80
[5] = dose: 200.0 mg/kg/injection, schedule: Q04DX002 (ip), vehicle: saline with Tween-80
[6] = dose: 400.0 mg/kg/injection, schedule: Q04DX002 (ip), vehicle: saline with Tween-80
[7] = dose: 100.0 mg/kg/injection, schedule: Q04DX003 (ip), vehicle: saline
[8] = dose: 200.0 mg/kg/injection, schedule: Q04DX003 (ip), vehicle: saline
[9] = dose: 400.0 mg/kg/injection, schedule: Q04DX003 (ip), vehicle: saline
[10] = dose: 100.0 mg/kg/injection, schedule: Q01DX001 (ip), vehicle: saline
[11] = dose: 200.0 mg/kg/injection, schedule: Q01DX001 (ip), vehicle: saline
[12] = dose: 400.0 mg/kg/injection, schedule: Q01DX001 (ip), vehicle: saline

## O/N=c1/ccn(O)c2ccccc12
dose: 0.5 mg/kg/injection, schedule: Q03HX008 (ip), vehicle: other
  T/C: 114 % of control
dose: 0.51 mg/kg/injection, schedule: Q01DX009 (ip), vehicle: saline
  T/C: 111 % of control and 119 % of control
dose: 0.78 mg/kg/injection, schedule: Q01DX009 (ip), vehicle: saline
  T/C: 116 % of control
dose: 1.0 mg/kg/injection, schedule: Q01DX009 (sc), vehicle: other
  T/C: 114 % of control
dose: 1.17 mg/kg/injection, schedule: Q01DX009 (ip), vehicle: saline
  T/C: 110 % of control
dose: 1.7 mg/kg/injection, schedule: Q01DX015 (ip), vehicle: saline
  T/C: 108 % of control
dose: 2.0 mg/kg/injection, schedule: Q01DX009 (sc), vehicle: other
  T/C: 113 % of control
dose: 2.0 mg/kg/injection, schedule: Q01DX015 (ip), vehicle: saline
  T/C: 122 % of control
dose: 2.0 mg/kg/injection, schedule: Q03HX008 (ip), vehicle: other
  T/C: 151 % of control
dose: 4.0 mg/kg/injection, schedule: Q01DX001 (sc), vehicle: other
  T/C: 118 % of control
dose: 4.0 mg/kg/injection, schedule: Q01DX009 (ip), vehicle: other
  T/C: 88 % of control
dose: 4.0 mg/kg/injection, schedule: Q01DX009 (oral), vehicle: other
  T/C: 98 % of control
dose: 4.0 mg/kg/injection, schedule: Q01DX009 (sc), vehicle: other
  T/C: 104 % of control
dose: 4.0 mg/kg/injection, schedule: Q03HX016 (ip), vehicle: other
  T/C: 87 % of control
dose: 4.4 mg/kg/injection, schedule: Q01DX001 (ip), vehicle: other
  T/C: 113 % of control
dose: 6.0 mg/kg/injection, schedule: Q01DX015 (ip), vehicle: saline
  T/C: 123 % of control
dose: 6.6 mg/kg/injection, schedule: Q01DX001 (ip), vehicle: other
  T/C: 113 % of control
dose: 8.0 mg/kg/injection, schedule: Q01DX001 (ip), vehicle: other
  T/C: 108 % of control
dose: 8.0 mg/kg/injection, schedule: Q01DX001 (oral), vehicle: other
  T/C: 102 % of control
dose: 8.0 mg/kg/injection, schedule: Q01DX001 (sc), vehicle: other
  T/C: 108 % of control
dose: 8.0 mg/kg/injection, schedule: Q01DX005 (ip), vehicle: other
  T/C: 93 % of control
dose: 8.0 mg/kg/injection, schedule: Q01DX009 (oral), vehicle: other
  T/C: 108 % of control
dose: 8.0 mg/kg/injection, schedule: Q01DX009 (sc), vehicle: other
  T/C: 120 % of control
dose: 8.0 mg/kg/injection, schedule: Q04DX003 (ip), vehicle: other
  T/C: 110 % of control
dose: 8.0 mg/kg/injection, schedule: Q08DX002 (ip), vehicle: other
  T/C: 114 % of control
dose: 9.0 mg/kg/injection, schedule: Q01DX015 (ip), vehicle: saline
  T/C: 87 % of control
dose: 16.0 mg/kg/injection, schedule: Q01DX001 (oral), vehicle: other
  T/C: 103 % of control
dose: 16.0 mg/kg/injection, schedule: Q01DX001 (sc), vehicle: other
  T/C: 96 % of control
dose: 16.0 mg/kg/injection, schedule: Q01DX009 (oral), vehicle: other
  T/C: 103 % of control
dose: 25.0 mg/kg/injection, schedule: Q04DX003 (ip), vehicle: saline
  T/C: 88 % of control
dose: 32.0 mg/kg/injection, schedule: Q01DX001 (oral), vehicle: other
  T/C: 113 % of control
dose: 32.0 mg/kg/injection, schedule: Q01DX001 (sc), vehicle: other
  T/C: 118 % of control
dose: 32.0 mg/kg/injection, schedule: Q01DX009 (oral), vehicle: other
  T/C: 103 % of control
dose: 40.0 mg/kg/injection, schedule: Q01DX001 (ip), vehicle: other
  T/C: 109 % of control
dose: 64.0 mg/kg/injection, schedule: Q01DX001 (oral), vehicle: other
  T/C: 104 % of control
dose: 80.0 mg/kg/injection, schedule: Q01DX001 (ip), vehicle: other
  T/C: 89 % of control
dose: 128.0 mg/kg/injection, schedule: Q01DX001 (oral), vehicle: other
  T/C: 103 % of control

## COc1ccc([N+](=O)[O-])cc1NC(=O)N/N=C(\C)C(C)(C)C
dose: 100.0 mg/kg/injection, schedule: Q01DX009 (ip), vehicle: Klucel (hydroxypropylcellulose) (HPC)
  T/C: 94 % of control
dose: 200.0 mg/kg/injection, schedule: Q01DX009 (ip), vehicle: Klucel (hydroxypropylcellulose) (HPC)
  T/C: 102 % of control
dose: 400.0 mg/kg/injection, schedule: Q01DX009 (ip), vehicle: Klucel (hydroxypropylcellulose) (HPC)
  T/C: 86 % of control

## COc1ccc2c(c1)-c1c(ccc(OC)c1O)CC(c1ccccc1)[N+](C)(C)CC2 (stereo unspecified)
dose: 6.25 mg/kg/injection, schedule: Q01DX001 (ip), vehicle: saline
  T/C: 96 % of control
dose: 12.5 mg/kg/injection, schedule: Q01DX001 (ip), vehicle: saline
  T/C: 96 % of control
dose: 25.0 mg/kg/injection, schedule: Q01DX001 (ip), vehicle: saline
  T/C: 107 % of control

## O=C1CCC(N2C(=O)C3C4CCC(CC4)C3C2=O)C(=O)N1 (stereo unspecified)
[1]
  T/C: 104 % of control
[2]
  T/C: 96 % of control
[3]
  T/C: 100 % of control

## CC(C)CC/C=C/c1ccccc1
[4]
  T/C: 92 % of control
[5]
  T/C: 104 % of control
[6]
  T/C: 92 % of control

## O=C1C=C(Nc2cccc(O)c2)c2ccccc2C1=O
[7]
  T/C: 94 % of control
[8]
  T/C: 97 % of control
[9]
  T/C: 89 % of control

## O=C(COc1ccccc1)NCc1ccccc1
[7]
  T/C: 94 % of control
[8]
  T/C: 92 % of control
[9]
  T/C: 92 % of control

## NOC(=O)c1cccc(Cl)c1
[4]
  T/C: 94 % of control
[5]
  T/C: 105 % of control
[6]
  T/C: 96 % of control

## Cc1ccc(C[n+]2cc([O-])on2)cc1C
dose: 100.0 mg/kg/injection, schedule: Q01DX Z (ip), vehicle: saline
  T/C: 105 % of control
dose: 200.0 mg/kg/injection, schedule: Q01DX Z (ip), vehicle: saline
  T/C: 93 % of control

## CC(=O)Nc1c(Cl)cc(-c2ccc(F)cc2)cc1Cl
dose: 15.0 mg/kg/injection, schedule: Q01DX001 (ip), vehicle: carboxymethylcellulose (CMC)
  T/C: 96 % of control
dose: 30.0 mg/kg/injection, schedule: Q01DX001 (ip), vehicle: carboxymethylcellulose (CMC)
  T/C: 94 % of control
dose: 60.0 mg/kg/injection, schedule: Q01DX001 (ip), vehicle: carboxymethylcellulose (CMC)
  T/C: 98 % of control

## CC(=O)Nc1ccc(Cc2ccc(NC(C)=O)cc2N)c(N)c1
dose: 50.0 mg/kg/injection, schedule: Q01DX001 (ip), vehicle: saline
  T/C: 96 % of control
[10]
  T/C: 98 % of control
[11]
  T/C: 104 % of control
[12]
  T/C: 92 % of control

## Nc1ccc(S(=O)(=O)CCCl)cc1
dose: 100.0 mg/kg/injection, schedule: Q04DX002 (ip), vehicle: Klucel (hydroxypropylcellulose) (HPC)
  T/C: 89 % of control
dose: 200.0 mg/kg/injection, schedule: Q04DX002 (ip), vehicle: Klucel (hydroxypropylcellulose) (HPC)
  T/C: 100 % of control
dose: 400.0 mg/kg/injection, schedule: Q04DX002 (ip), vehicle: Klucel (hydroxypropylcellulose) (HPC)
  T/C: 100 % of control

## c1ccc(C2=NNC(c3ccccn3)=NN2)nc1
[1]
  T/C: 96 % of control
[2]
  T/C: 96 % of control
[3]
  T/C: 102 % of control

## O=c1[nH]c(Cc2ccccc2)c(N=Nc2ccccc2)c(=O)[nH]1
dose: 25.0 mg/kg/injection, schedule: Q01DX001 (ip), vehicle: saline with Tween-80
  T/C: 93 % of control
dose: 50.0 mg/kg/injection, schedule: Q01DX001 (ip), vehicle: saline with Tween-80
  T/C: 93 % of control
dose: 100.0 mg/kg/injection, schedule: Q01DX001 (ip), vehicle: saline with Tween-80
  T/C: 93 % of control

## C(/C=C/C=C/Nc1ccccc1)=Nc1ccccc1
[1]
  T/C: 100 % of control
[2]
  T/C: 104 % of control
[3]
  T/C: 92 % of control

## c1ccc(N/N=C(\Sc2ccccc2)c2ccccc2)cc1
[1]
  T/C: 113 % of control
[2]
  T/C: 102 % of control
[3]
  T/C: 94 % of control

## COC(=O)C1(O)c2ccccc2-c2ccccc21
dose: 100.0 mg/kg/injection, schedule: Q01DX001 (ip), vehicle: carboxymethylcellulose (CMC)
  T/C: 103 % of control
dose: 200.0 mg/kg/injection, schedule: Q01DX001 (ip), vehicle: carboxymethylcellulose (CMC)
  T/C: 111 % of control
dose: 400.0 mg/kg/injection, schedule: Q01DX001 (ip), vehicle: carboxymethylcellulose (CMC)
  T/C: 97 % of control

## O=S(=O)(C1CC1c1ccccc1)N1CCCc2ccccc21 (stereo unspecified)
[10]
  T/C: 103 % of control
[7]
  T/C: 98 % of control
[11]
  T/C: 103 % of control
[8]
  T/C: 98 % of control
[12]
  T/C: 95 % of control
[9]
  T/C: 104 % of control
